For assay [1], the system named is T47D cells. Briefly: Cell cycle arrest by flow cytometry (propidium iodide), T47D. The class given is cell-based, Human. The conditions noted are these: 1 μM, 18 h. The protocol:
(§1) T47D, ZR-75-1 breast cancer cell lines and PC-3, an androgen-independent prostate cancer cell line were maintained and harvested as described in Example 148. Jurkat T leukemia cells were grown in RPMI 1640 media (Life Technologies, Inc.) +10% FCS (Sigma Chemical Company) in a 5% CO2-95% humidity incubator at 37° C., and maintained at a cell density between 4 and 8×10^5 cells/ml. 1×10^6 cells were induced with 1 μM of 2-amino-3-cyano-7-dimethylamino-4-(3-methoxy-4,5-methylenedioxyphenyl)-4H-chromene or 2-amino-3-cyano-7-dimethylamino-4-(3,4-methylenedioxyphenyl)-4H-chromene for 18 h at 37° C. As a control, cells were also incubated with DMSO. Cells were harvested at 1200 rpm and washed twice with 5 mM EDTA/PBS. Cells were then resuspended in 300 μl EDTA/PBS and […] of 100% ethanol, vortexed and incubated at room temperature for 1 h. Samples were spun down at 12000 rpm for 5 min and the supernatant was removed. A solution containing 100 μg/ml of propidium iodide and 1 mg/ml of RNAse A (fresh) was added to the samples and incubated for 1 h at room temperature. Samples were then transferred to 12×75 mm polystyrene tubes and analysed on a flow cytometer. All flow cytometry analyses were performed on FACScalibur (Becton Dickinson) using Cell Quest analysis software.

Assay [2] deals with T-47D cells. Briefly: Inhibition of cell proliferation (GI50), CellTiter 96 AQUEOUS One, T-47D. Format: cell-based. The conditions noted are these: Homo sapiens, T47D, 48 h. On the procedure: (§2) T-47D and ZR-75-1 cells were grown and harvested as in Example 148. An aliquot of 90 μl of cells ([…] cells/ml) was added to a well of a 96-well microtiter plate containing 10 μl of a 10% DMSO in RPMI-1640 media solution containing 1 nM to 100 μM of 2-amino-3-cyano-7-dimethylamino-4-(3-methoxy-4,5-methylenedioxyphenyl)-4H-chromene (Example 19) or other test compound (0.1 nM to 10 μM final). An aliquot of 90 μl of cells was added to a well of a 96-well microtiter plate containing 10 μl of a 10% DMSO in RPMI-1640 media solution without compound as the control sample for maximal cell proliferation (Amax). The samples were mixed by agitation and then incubated at 37° C. for 48 h in a 5% CO2-95% humidity incubator. […] Using an absorbance plate reader (Model 1420 Wallac Instruments), an initial reading (T=0) was made approximately 1-2 min after addition of the solution, employing absorbance at 490 nm. This determines the possible background absorbance of the test compounds. No absorbance for 2-amino-3-cyano-7-dimethylamino-4-(3-methoxy-4,5-methylenedioxyphenyl)-4H-chromene or its analogs was found at 490 nm. […]
(§3) The samples were mixed by agitation and then incubated at 37° C. for 0.5 h in a 5% CO2-95% humidity incubator. […] Absorbance was read as above, (AT=0) defining absorbance for initial cell number used as baseline in GI50 determinations.

Assay [3] concerns Jurkat cells. Briefly: Mitotic arrest in Jurkat cells (mitotic figures, Syto 16). The conditions noted are these: 6 h. Format: cell-based. On the procedure: Jurkat cells were incubated with a range of concentrations of 2-amino-3-cyano-7-dimethylamino-4-(3-methoxy-4,5-methylenedioxyphenyl)-4H-chromene (0.02 μM to 5 μM) for 6 h under normal growth conditions; control cultures were treated with DMSO vehicle. The cells were then treated for 20 min. with 800 nM Syto 16. Cytospin preparations were then prepared and the samples were viewed by fluorescent microscopy using a fluorescein filter set. For each concentration of test compound, the number of mitotic figures were counted and expressed as a percentage of the total number of cells. Three fields from each condition were evaluated and the mean and SEM were calculated and plotted as a function of drug concentration (FIG. 3).

The test system of assay [4] is T-47D cells. Kind of assay: Caspase cascade activation assay (N-(Ac-DEVD)-N'-ethoxycarbonyl-R110 fluorogenic substrate) in T-47D. As to conditions: 24 h incubation. The class given is cell-based, Human. The protocol:
(§4) Human breast cancer cell lines T47D and ZR-75-1 were grown according to media component mixtures designated by American Type Culture Collection +10% FCS (Life Technologies, Inc.), in a 5% CO2-95% humidity incubator at 37° C. T-47D and ZR-75-1 cells were maintained at a cell density between 30 and 80% confluency at a cell density of 0.1 to 0.6×10^6 cells/ml. Cells were harvested at 600×g and resuspended at 0.65×10^6 cells/ml into appropriate media +10% FCS . […] An aliquot of 45 μl of cells was added to a well of a 96-well microtiter plate containing 5 μl of a 10% DMSO in RPMI-1640 media solution without test compound as the control sample. The samples were mixed by agitation and then incubated at 37° C. for 24 h in a 5% CO2-95% humidity incubator. After incubation, the samples were removed from the incubator and 50 μl of a solution containing 20 μM of N-(Ac-DEVD)-N′-ethoxycarbonyl-R110 (SEQ ID NO: 1) fluorogenic substrate (Cytovia, Inc.; WO99/18856), 20% sucrose (Sigma), 20 mM DTT (Sigma), 200 mM NaCl (Sigma), 40 mM Na PIPES buffer pH 7.2, and 500 μg/ml lysolecithin (Calbiochem) was added. The samples were mixed by agitation and incubated at room temperature. Using a fluorescent plate reader (Model 1420 Wallac Instruments), an initial reading (T=0) was made approximately 1-2 min after addition of the substrate solution, employing excitation at 485 nm and emission at 530 nm, to determine the background fluorescence of the control sample. After the 3 h incubation, the samples were read for fluorescence as above (T=3 h).
(§5) The Relative Fluorescence Unit values (RFU) were used to calculate the sample readings as follows: RFU(T=3h)−Control RFU (T=0)=Net RFU(T=3h)
(§6) The EC50 (nM) was determined by a sigmoidal dose-response calculation (Prism 2.0, GraphPad Software Inc.).

The test system of assay [5] is PC-3 cells. Kind of assay: Cell cycle arrest by flow cytometry (propidium iodide), PC-3. The class given is cell-based. As to conditions: 1 μM, 18 h. The protocol:
as §1

The test system of assay [6] is poly(ADP)ribose polymerase (PARP) cleavage in Jurkat cells. Kind of assay: PARP cleavage in Jurkat cells (western blot). The class given is cell-based. The protocol: A wide range of natural substrates are cleaved by the caspases during apoptosis. One of these is poly(ADP)ribose polymerase (PARP), an enzyme important in genome surveillance. The ability of 2-amino-3-cyano-7-dimethylamino-4-(3-methoxy-4,5-methylenedioxyphenyl)-4H-chromene to induce PARP cleavage was tested by treating Jurkat cells with the compound at a concentration of 2.5 μM for 5, 15 and 30 h. Control cultures were treated with DMSO vehicle or staurosporine, a known apoptosis inducer.

Assay [7] relates to Jurkat cells. Kind of assay: Nuclear fragmentation in Jurkat cells (Syto16 staining). The class given is cell-based. As to conditions: 100 nM or higher, 24 h. On the procedure:
The ability of 2-amino-3-cyano-7-dimethylamino-4-(3-methoxy-4,5-methylenedioxyphenyl)-4H-chromene to induce nuclear fragmentation was tested by treatment of Jurkat cells with the test compound followed by staining of the nucleus with Syto16, a fluorescent DNA dye. The nuclei of Jurkat cells treated with DMSO vehicle are round with dispersed chromatin that is moderately stained with Syto16 (FIG. 1A).

In assay [8] the test system is ZR-75-1 cells. Briefly: Inhibition of cell proliferation (GI50), CellTiter 96 AQUEOUS One, ZR-75-1. Format: cell-based. As to conditions: Homo sapiens, ZR-75-1, 48 h. The protocol:
as §2, §3

Assay [9] has as its system ZR-75-1 cells. Kind of assay: Caspase cascade activation assay (N-(Ac-DEVD)-N'-ethoxycarbonyl-R110 fluorogenic substrate) in ZR-75-1. The conditions noted are these: 24 h incubation; for EC50: Homo sapiens, 0.016 to 1 μM final, read-out: Caspase potency EC50; for Caspase activity Ratio: ratio of net RFU of test compound to control. The class given is cell-based, Human. The protocol:
as §4, §5, §6

Assay [10] relates to Jurkat T leukemia cells. Briefly: Cell cycle arrest by flow cytometry (propidium iodide), Jurkat. The conditions noted are these: 1 μM, 18 h. The class given is cell-based. The protocol:
as §1
A general note: In flow cytometry, cells or beads pass a laser one at a time.

The results in this text go back to patent publication US6906203B1, “Substituted 4H-chromene and analogs as activators of caspases and inducers of apoptosis and the use thereof” (Cytovia, Inc., priority 1999, dated 2005).

“Also recorded” adds a separate entry of the source.

In the case of `COc1cc(C2C(C#N)=C(N)Oc3cc(N(C)C)ccc32)cc2c1OCO2` (centres unmarked) [Example 19, 2-Amino-3-cyano-7-dimethylamino-4-(3-methoxy-4,5-methylenedioxyphenyl)-4H-chromene], the Cell cycle arrest result in assay [1] was “progression and arrest in G2/M; also recorded: induce cell cycle arrest”; in [5] it was “progression and arrest in G2/M; also recorded: induce cell cycle arrest”; in assay [10], “progression and arrest in S/G2/M; also recorded: induces cell cycle arrest”. Further, the GI50 in assay [2] worked out at 0.003 µM; in [8], 0.5 µM. The “Percent mitotic arrest versus drug concentration” value in assay [3] (up to 1.0 μM (FIG. 3)) is given as “increasing percent mitotic arrest with increasing drug concentration”. Also, the EC50 in assay [3] (Homo sapiens, 0.02 μM to 5 μM) is about 0.125 µM; in assay [4] (Homo sapiens, T47D, 0.016 to 1 μM final, read-out: Caspase potency EC50), 0.087 µM; in [9], 0.038 µM. The “Caspase activity Ratio” value came to 5.5 in assay [4] (ratio of net RFU of test compound to control) and 6.3 in [9]. Besides, the “PARP cleavage at 30 h” value in [6] is “virtually all of PARP was converted into its cleaved form”. The Nuclear fragmentation result in [7] was “shrunken and fragmented nuclei”.

Regarding `CN(C)c1ccc2c(c1)OC(N)=C(C#N)C2c1ccc2c(c1)OCO2` (centres unmarked) [Example 1, 2-Amino-3-cyano-7-dimethylamino-4-(3,4-methylenedioxyphenyl)-4H-chromene], the Cell cycle arrest entry was “progression and arrest in G2/M; also recorded: induce cell cycle arrest” in [1]; “progression and arrest in G2/M” in assay [5] (listed as 2-amino-3-cyano-7-dimethylamino-4-(3,4-methylenedioxyphenyl)-4-H-chromene); “induce cell cycle arrest” in assay [5] (listed as 2-amino-3-cyano-7-dimethylamino-4-(3,4-methylenedioxyphenyl)-4H-chromene). In addition, the figures for the GI50 in [2] and in assay [8] were 0.1 µM and 10 µM, respectively. Moreover, the EC50 in assay [9] worked out at 0.06 µM. Also, in assay [9], the “Caspase activity Ratio” value is reported as 4.2.

The term GI50 denotes the concentration at which growth is held to half of that of the control. High values mean less potent growth inhibition, low ones more potent growth inhibition. One may read the EC50 as the concentration that produces a half-maximal response.
